From patent US12383753B2, “Method and system of sensitizing cancer cells to chemical treatment by plasma based activation” (The George Washington University, priority 2018, dated 2025)
Entries after “also recorded” stand apart in the source; their conditions may differ.

Tests used:
[1] = cited from earlier work
[2] = test system: human pancreas adenocarcinoma (PA-TU-8988T) cells; assay: MTT cell viability assay of cancer cells with or without CAP activation, followed by reactive species treatment; format: cell-based; settings: for cell viability: 10 μM H2O2 on CAP-activated cells, 12.5 kHz, 1.53 lpm
Method: In this example, human pancreas adenocarcinoma (PA-TU-8988T) cells were used in conjunction with a Dulbecco's modified Eagle's medium (DMEM, 11965-118) from Life Technologies. The DMEM was mixed with 1% (v/v) antibiotic (penicillin and streptomycin) solution (Life Technologies). The media used in the cell culture were composed of DMEM supplemented with 10% (v/v) fetal bovine serum (ThermoFisher Scientific). The cells were cultured in a 96-well plate (61406-081, Corning). 100 μL of the cells-harvesting solution (3×10^4 cells/mL) were seeded in each well. Cancer cells were grown for 1 day under the standard culture condition (a humidified, 37 C, 5% CO2 environment). The media used to culture cells overnight were removed before any experiments were performed.
In the example system 200 in FIG. 2A, basic protocols were provided to determine the activation state of cancer cells. To perform the CAP sensitivity treatment, each well of the well plate 230 was filled with a 50 μL DMEM solution with the growing cells. Each of the cells in the 96-well plate 230 was treated by the CAP jet from the CAP jet device 202 vertically. The gap between the bottom of the 96-well plate 230 and the CAP source is 3 cm in this example. After the CAP treatment, 50 μL of new DMEM was transferred to replace the medium in the wells of the 96-well plate 230 treated by the CAP jet device 202.
As a result, cancer cells in the activation state were obtained when the CAP sensitivity treatment time was longer than 20 seconds. Reactive treatment was applied in the form of new H2O2 − DMEM added to the cells in the well plate 230. To make the new H2O2 − DMEM, 9.8 M H2O2 standard solution (Sigma-Aldrich, 216763) was added to DMEM with a designed concentration. Then, H2O2 − DMEM or NO2 − DMEM was transferred to affect the activated cancer cells in the designed experiments. The cell viability was measured by using MTT assay according to the standard protocols provided by the manufacturer (Sigma-Aldrich, M2128). The 96-well plate 230 was read by an H1 microplate reader manufactured by […] at an absorbance of 570 nm after shaking in the reader for 30 seconds. To perform the data analysis, the measured absorbance at 570 nm was processed to be a relative cell viability by the division of absorbance between the experimental group and the control group.
The CAP treatment and removal of the medium containing reactive species is the basic strategy to obtain the cancer cells in the activated state. Thus, the process for increasing the effectiveness of treating cancer cells with a follow up reactive treatment is as follows. The direct CAP sensitivity treatment (1 min) was first performed on each well of the 96-well plate 230. The cancer cells in the wells were immersed in 50 μL of DMEM. The DMEM was quickly removed (less than a minute) after the CAP sensitivity treatment. Then, the CAP-activated (treated) cancer cells were obtained. The cytotoxicity of H2O2 (10 μM) treatment on the CAP-treated (activated) cancer cells were compared with that on cancer cells without the CAP sensitivity treatment. The H2O2-containing DMEM was made by adding H2O2 standard solution (Sigma-Aldrich, 216763) in DMEM with a designed concentration (10 μM). All cells were cultured for 3 days before the final cell viability assay using a MTT assay (Sigma-Aldrich, M2128). The cell viability assay was performed following the standard protocols provided by the manufacturer. Finally, the absorbance at 570 nm was processed to be a relative cell viability (fold) by the division of absorbance between the experimental group and the control group. In the control group, cancer cells were just cultured in the untreated DMEM.

[3] = test system: human pancreas adenocarcinoma (PA-TU-8988T) cells; assay: as above; format: cell-based
[4] = low concentration, CAP-activated cancer cells
[5] = low concentration, same cancer cells without activation

| Compound | concentration range found in CSF [1] [µM] | killing effect (in words) ([2]; 10 μM H2O2, CAP-activated cells) | killing effect (in words) ([2]; 10 μM H2O2, cells without CAP treatment (activation)) | cell viability ([2]; discharge voltage 3.15 kV) [fold] | cell viability ([2]; discharge voltage 3.78 kV) [fold] | cell viability ([2]; discharge voltage 4.67 kV) [fold] | effect on cell viability (in words) ([2]; H2O2 DMEM applied two hours after CAP treatment) | killing effect (in words) [2, 4] | killing effect (in words) [2, 5] | killing effect ([3]; 22 μM H2O2, cells activated by CAP (bars 414 and 444)) [%] | killing effect ([3]; 22 μM H2O2, cells without activation (bars 416 and 446)) | killing of cancer cells (in words) ([3]; 22 μM H2O2-DMEM, cells activated by CAP treatment) | inhibition on the cell viability (in words) ([3]; 22 μM H2O2-DMEM, cells without CAP treatment) | killing effect (in words) ([3]; H2O2 15 μM and 22 μM, CAP-activated cells) | killing effect (in words) ([3]; H2O2-DMEM 15 μM and 22 μM, cells without activation) |
| --- | --- | --- | --- | --- | --- | --- | --- | --- | --- | --- | --- | --- | --- | --- | --- |
| Cn1nnc2c(C(N)=O)ncn2c1=O [TMZ, Temozolomide] | 10 to 25 | – | – | – | – | – | – | – | – | – | – | – | – | – | – |
| OO [H2O2] | – | significant killing effect | will not cause a killing effect; also recorded: does not cause a killing effect | 0.73 | 0.38 | 0.71 | does not have any effect on cell viability | noticeable killing effect | will not cause significant killing effect | ~50 | about 10% | strongly kill | very small inhibition | strong killing effect | did not cause strong killing effect |
| O=NO [NO2 −] | – | – | – | – | – | – | – | noticeable killing effect | will not cause significant killing effect | – | – | – | – | – | – |
